Data from patent US11524082B2, “FBSA-based therapeutic and radioimaging conjugates targeting carbonic anhydrase positive cancers” (priority 2017, dated 2022).
Blank lines part the entries; values can stand above or below the compound they belong to.

What was measured:
A549 xenografts [1] = system: A549 xenografts; design: species or system mice; settings: in vivo
Description: (§1) Whole-Body Imaging and Biodistribution of Radiolabeled 17 in Mouse Xenograft Models
(§2) SKRC52, HT29, or A549 cells (˜3×10^6 cells per mouse) were injected subcutaneously into the shoulders of female athymic nu/nu mice. Growth of the tumors was measured in two perpendicular directions and the volumes of the tumors were calculated as 0.5×L×W^2 (L=longest axis and W=axis perpendicular to L in millimeters). Once tumors reached a minimum of 500 mm^3 in volume, animals were injected with radiolabeled Conjugate 17 (250 μCi) in PBS (100 μL, pH 7.4) via tail vein injection. To obtain whole-body images, mice were anesthetized with isoflurane and images were acquired with a Kodak Imaging Station (In-Vivo FX, Eastman Kodak Company) in combination with CCD camera and Kodak molecular imaging software (version 4.0) with the kidneys shielded. Radioimages were acquired using the following parameters: radio isotope illumination source, 3 min acquisition time, f-stop=4, focal plane=5, FOV=160, binning=8. White light images were acquired using the following parameters: white light transillumination illumination source, 0.175 s acquisition time, f-stop=16, focal plane=5, FOV=160, and no binning. After acquiring the whole-body imaging, the mice were sacrificed with CO2 asphyxiation and, following necropsy, the tissues were placed into preweighed γ-counter tubes. The radioactivity of the tissues and a fraction of the injected dose was measured in a γ-counter (Packard, Packard Instrument Company). Count per minute (CPM) values were corrected for decay times, and the results were calculated as percent of the injected dose per gram (% ID/g) of wet tissue.
250 μCi of radiolabeled Conjugate 17 was injected into the tail vein of mice bearing xenografts derived from the A549 cell line. At various time points shown in Table 3, the tissues were removed from the mice (n=1 per time point), weighed, and the radioactivity was quantified on a gamma counter. Because copper-64 emits gamma radiation at 511 keV in 36% abundance, it is possible to use gamma detection methods.

SKRC52 xenografts = system: SKRC52 xenografts; design: species or system mice; settings: mouse, in vivo
Description: as §1, §2

HT29 xenografts = system: HT29 xenografts; design: species or system mice; settings: in vivo
Description: as §1, §2

SKRC52 cells = assay: Fluorescent confocal microscopy of FBSA-PEG2-FITC conjugate in SKRC52 cells; assay type: cell-based, Human; settings: 25 nM conjugate, 1 hour at 37° C.; competition with 100-fold excess Compound 3; FIG. 1
Description: Fluorescent Microscopy of FBSA-PEG2-FITC Conjugate, Conjugate 5.
Metastatic Human Renal Cell Carcinoma (SKRC52) cells (10^5) were seeded into chambered coverglass plates and allowed to grow to confluence over 24 hours (hr). Spent medium was replaced with 0.5 mL of fresh medium containing 10% fetal bovine serum albumin and 25 nM concentration of the FITC conjugate, Conjugate 5, alone or the dye conjugate plus 100-fold excess CAIX inhibitor (Compound 3, 3-((2-(cyclooctylamino)-3,5,6-trifluoro-4-sulfamoylphenyl)sulfonyl)propanoic acid). After incubation for 1 hour at 37° C., cells were rinsed twice with 1 mL of media to remove unbound fluorescence and 0.5 ml of fresh incubation medium was added to the wells. Images were acquired using a confocal microscopy (FV 1000, Olympus).

CAIX [2] = biological target: T1, CAIX (Homo sapiens, UniProt Q16790); assay: Binding affinity of CAIX FITC conjugates by flow cytometry in HEK293 transfected with CAIX; design: expressed in transfected cells; host or cells: HEK293
Text: (§3) General Procedure for Binding Affinity Determination of CAIX FITC Conjugates

CAIX [3] = biological target: T1, CAIX; assay: Binding affinity of CAIX FITC conjugates by flow cytometry in HT-29 cells; design: expressed in transfected cells; settings: FIG. 4
Description: as §3
(§4) HEK293 transfected with CAIX, SKRC52, HT29, or A549 cells (0.25×10^6) were placed into 1.5 ml centrifuge tubes with 0.3 mL of fresh DMEM medium containing increasing concentrations of CAIX FITC conjugates in the presence or absence of 100-fold excess CAIX inhibitor (Compound 3, 3-((2-(cyclooctylamino)-3,5,6-trifluoro-4-sulfamoylphenyl)sulfonyl)propanoic acid. After incubating for 1 h at 25° C., cells were rinsed twice with 1 mL of medium. The cells were transferred into a 96-well plate and the mean florescence intensity (MFI) was read using flow cytometry (BD Accuri C6, BD Biosciences). Apparent KD was calculated by plotting MFI versus the concentration of the FITC conjugates using GraphPad Prism 4. For hypoxia experiments, cells were incubated under an atmosphere containing 1% oxygen, 5% carbon dioxide, and 94% nitrogen for 24-48 hours in a hypoxia chamber.

CAIX [4] = biological target: T1, CAIX; assay: Binding affinity of CAIX FITC conjugates by flow cytometry in A549 cells; design: expressed in transfected cells; settings: FIG. 7
Description: as §3, §4

CAIX [5] = biological target: T1, CAIX; assay: Binding affinity of CAIX FITC conjugates by flow cytometry in SKRC52 cells; design: endogenous in cells; host or cells: SKRC52
Text: as §3

HT-29 xenografts = assay: In vivo efficacy of tubulysin conjugates in HT-29 xenograft tumors; design: species or system mice
Description: (§5) Athymic nu/nu mice were purchased from Harlan Laboratories (ENVIGO), housed in a sterile environment on a standard 12 hour light-dark cycle and maintained on normal rodent chow. All animal procedures were approved by the PURDUE Animal Care and Use Committee in accordance with National Institutes of Health guidelines.
In Vivo Efficacy of Tubulysin Conjugate 12 in HT29 Xenograft Tumors.
Cells, HT-29 cells (4.25×10^6) were subcutaneously injected into the shoulders of 5-6 week old female nu/nu mice. Tumors were measured in two perpendicular directions thrice weekly with vernier calipers and their volumes were calculated as 0.5×L×W^2, where L is the longest axis (in millimeters), and W is the axis perpendicular to L (in millimeters). Dosing of Conjugate 12 was initiated when the subcutaneous tumors reached ˜100-275 mm^3 in volume. Dosing solutions were prepared in saline and filtered through a 0.22 μm filter. Solutions were administered via tail vein injection or intraperitoneally. […] Injections were given every two days and the mice were weighed concurrently. […]

A549 xenografts [6] = assay: In vivo efficacy of Conjugate 14 in A549 xenografts; design: species or system mice; settings: 1.25 umole/kg TIW for three weeks, FIG. 17
Description: as §5
Cells, HT-29 cells (4.25×10^6) were subcutaneously injected into the shoulders of 5-6 week old female nu/nu mice. Tumors were measured in two perpendicular directions thrice weekly with vernier calipers and their volumes were calculated as 0.5×L×W^2, where L is the longest axis (in millimeters), and W is the axis perpendicular to L (in millimeters). Dosing of Conjugate 12 was initiated when the subcutaneous tumors reached ˜100-275 mm^3 in volume. Dosing solutions were prepared in saline and filtered through a 0.22 μm filter. Solutions were administered via tail vein injection or intraperitoneally. Each mouse received 2 μmol/kg Conjugate 12 per injection. Injections were given every two days and the mice were weighed concurrently.
Similar experiments were performed using Conjugate 14 with A549 cells instead of HT-29 cells (FIGS. 17 and 18).

CAIX [7] = biological target: T1, CAIX; assay: In vitro binding affinity of radiolabeled Conjugate 17 in SKRC52 cells (gamma counting); design: endogenous in cells; host or cells: SKRC52
Description: (§6) In Vitro Binding Affinity of Radiolabeled Conjugate 17
(§7) SKRC52, HT29, A549 cells (˜0.25×10^6) were seeded in a 24-well plate and allowed to grow overnight. Fresh medium containing increasing concentrations of radiolabeled Conjugate 17, as prepared in Example 17, in the presence or absence of 100-fold excess FBSA competition compound was added. All concentrations were examined in duplicate or triplicate. After incubating for 1 h at 25° C., cells were washed with PBS (3×0.5 mL). To each well was added 0.5 M NaOH. After 10 min, 0.45 mL of the NaOH was removed and the radioactivity was measured with a γ-counter (Packard, Packard Instrument Company). The apparent binding affinity was calculated by plotting the bound radioactivity versus the concentration of the radiolabeled conjugate with GraphPad Prism 4.

CAIX [8] = biological target: T1, CAIX; assay: In vitro binding affinity of radiolabeled Conjugate 17 in A549 cells (gamma counting); design: expressed in transfected cells; settings: 64Cu-radiolabeled, 1 h at 25° C., FIG. 10
Description: as §6, §7

Structure (SMILES): NS(=O)(=O)c1c(F)c(F)c(S(=O)(=O)CCC(=O)NCCOCCOCCC(=O)NCCNC(=O)CCC(C(=O)O)N2CCN(CC(=O)O)CCN(CC(=O)O)CC2)c(NC2CCCCCCC2)c1F (stereo not shown) (64Cu complex, metal not drawn) [radiolabeled Conjugate 17]
radiation count at the tumor site, competition mouse versus non-competition mouse (A549 xenografts [1]): much lower radiation count at the tumor site
tumor uptake in whole-body image, targeted versus competition mouse (A549 xenografts [1]): much higher tumor uptake than that of the competition mouse
time of the highest tumor-to-tissue ratio (A549 xenografts [1]; mouse): nine
radioactivity at the tumor, with competition control (SKRC52 xenografts): the radioactivity at the tumor was receptor mediated
uptake of removed tumors, targeted versus competition (SKRC52 xenografts): higher tumor uptake in the targeted mouse versus the competition mice
tumor uptake in whole-body image, targeted versus competition mouse (HT29 xenografts): also demonstrated in mice bearing HT29 xenografts
tumor to tissue background ratios (HT29 xenografts; mouse): not very good

Structure (SMILES): NS(=O)(=O)c1c(F)c(F)c(S(=O)(=O)CCC(=O)NCCOCCOCCC(=O)NC(CSC2CC(=O)N(c3ccc(-c4c5ccc(=O)cc-5oc5cc(O)ccc45)c(C(=O)O)c3)C2=O)C(=O)O)c(NC2CCCCCCC2)c1F (stereo not shown) [Conjugate 5, 2-(((1-(3-carboxy-4-(6-hydroxy-3-oxo-3H-xanthen-9-yl)phenyl)-2,5-dioxopyrrolidin-3-yl)thio)methyl)-16-((2-(cyclooctylamino)-3,5,6-trifluoro-4-sulfamoylphenyl)sulfonyl)-4,14-dioxo-7,10-dioxa-3,13-diazahexadecanoic acid]
cell binding by confocal microscopy, alone and with excess CAIX inhibitor (SKRC52 cells): bound the cells and were competed in the presence of excess unconjugated inhibitor
Kd (CAIX [2]; HEK293-CA9 cells, FIG. 2 / FIG. 5, apparent KD from MFI, 1 h at 25° C., read-out: KD): 17.9 nM
binding with competition by unconjugated inhibitor (CAIX [3]; 100-fold excess unconjugated inhibitor (Compound 3)): bound the cells and competed in the presence of 100-fold excess unconjugated inhibitor
Kd (CAIX [3]): 4.55 nM
Kd (CAIX [4]): 6.04 nM
Kd (CAIX [5]; SKRC52 cells under hypoxia (1% oxygen, 24-48 hours), FIG. 6, read-out: KD, Hypoxia SKRC52): 4.72 nM
Kd (CAIX [5]; SKRC52 cells without hypoxia, FIG. 6, read-out: binding affinity, Normoxia SKRC52): 4.57 nM
Kd (CAIX [5]; SKRC52 cells, FIG. 3, apparent KD from MFI, 1 h at 25° C., read-out: KD): 1.28 nM

Structure (SMILES): N[C@@H](CNC(=O)CCOCCOCCOCCOCCNC(=O)CCS(=O)(=O)c1c(F)c(F)c(S(N)(=O)=O)c(F)c1NC1CCCCCCC1)C(=O)N[C@@H](CC(=O)O)C(=O)N[C@@H](CSC1CC(=O)N(c2ccc(-c3c4ccc(=O)cc-4oc4cc(O)ccc34)c(C(=O)O)c2)C1=O)C(=O)O (stereo partly drawn) [Conjugate 7, 5-(3-(((2R,5S,8S)-8-amino-2-carboxy-5-(carboxymethyl)-29-((2-(cyclooctylamino)-3,5,6-trifluoro-4-sulfamoylphenyl)sulfonyl)-4,7,11,27-tetraoxo-14,17,20,23-tetraoxa-3,6,10,26-tetraazanonacosyl)thio)-2,5-dioxopyrrolidin-1-yl)-2-(6-hydroxy-3-oxo-3H-xanthen-9-yl)benzoic acid]
Kd (CAIX [2]): 55.2 nM
binding with competition by unconjugated inhibitor (CAIX [2]; HEK293-CA9 cells, 100-fold excess unconjugated inhibitor (Compound 3), FIG. 5): bound the cells and competed in the presence of 100-fold excess unconjugated inhibitor
Kd (CAIX [5]): 4.57 nM

Structure (SMILES): CCCC(=O)OCN(C(=O)[C@@H](NC(=O)C1CCCCN1C)[C@@H](C)CC)[C@H](C[C@@H](OC(C)=O)c1nc(C(=O)N[C@@H](Cc2ccc(O)cc2)C[C@H](C)C(=O)NNC(=O)OCCSSC[C@H](NC(=O)[C@H](CC(=O)O)NC(=O)[C@@H](N)CNC(=O)C(CC(=O)O)NC(=O)C(CCCNC(=N)N)NC(=O)C(CC(=O)O)NC(=O)CCOCCOCCNC(=O)CCS(=O)(=O)c2c(F)c(F)c(S(N)(=O)=O)c(F)c2NC2CCCCCCC2)C(=O)O)cs1)C(C)C (stereo partly shown) [Conjugate 14]
whole body mass, other doses (HT-29 xenografts; HT-29 xenograft mice, 1.5, 1, 0.5, 0.25 μmole/kg, n=1 each, FIG. 14): acceptable body mass profiles
whole body mass, highest dose (HT-29 xenografts; HT-29 xenograft mice, highest dose (2 μmole/kg), n=1, FIG. 14): loss of body mass
tumor reemergence, starting day (HT-29 xenografts; HT-29 xenografts, 1 umole/kg, n=1, FIG. 13): 16 days
tumor response (HT-29 xenografts; HT-29 xenografts, 1.25 umole/kg TIW for three weeks, n=5, FIG. 15): stable tumor regression and stable disease until treatment cessation
tumor response, dose escalation (HT-29 xenografts; HT-29 xenografts, doses 2, 1.5, and 1 umole/kg, n=1 for each dose, FIG. 13): shrank tumors
tumor response (A549 xenografts [6]): stable tumor regression and stable disease until treatment cessation

bound radioactivity in competition controls (CAIX [7]; SKRC52 and A549 cells, 100-fold excess of unlabeled FBSA-COOH): significantly less bound radioactivity
concentration reaching saturation of binding (CAIX [7]; SKRC52 and A549 cells, FIGS. 9 and 10): approximately 75 nM
Kd (CAIX [7]; SKRC52 cells, 64Cu-radiolabeled, 1 h at 25° C., FIG. 9): 5.87 nM
Kd (CAIX [8]): 6.04 nM
Structure (SMILES): NS(=O)(=O)c1c(F)c(F)c(S(=O)(=O)CCC(=O)NCCOCCOCCC(=O)NCCNC(=O)CCC(C(=O)O)N2CCN(CC(=O)O)CCN(CC(=O)O)CC2)c(NC2CCCCCCC2)c1F (stereo not shown) [radiolabeled Conjugate 17]
